# From patent US20080033008A1, “COMPOSITIONS AND METHODS FOR TREATING, CONTROLLING, REDUCING, OR AMELIORATING INFECTIONS AND SEQUELAE THEREOF” (priority 2006, published 2008)
# Where “and” joins values, the source holds several entries; their conditions need not be identical. Equal entries are not always repeated. Entries after “also recorded” stand apart in the source; their conditions may differ.
# Assays:
# [1] = tested on: neovascularization and angiogenesis; settings: X. Xin et al., J. Biol. Chem. 274:9116-9121 (1999); cited from earlier work
# [2] = Very preliminary data (not shown) on side effects of corticosteroids
# [3] = Pupillary diameter measurement, rabbit paracentesis model; type: in vivo; settings: raw data per eye; for Diameter (mm) T2: −5 min: 5 min before the first paracentesis; for Diameter (mm) T3: +115 min: 5 min before the second paracentesis; for Diameter (mm) T1: −180 min: −180 min (basal)
# Protocol: (§1) Each rabbit was placed in a restraint device and tagged with the alphanumeric code. The formulations were instilled (50 μl) into the conjunctival sac of both eyes 180, 120, 90 and 30 min before the first paracentesis; then 15, 30, 90 min after the first paracentesis. To perform the first paracentesis the animals were anaesthetized by intraveneous injection of 5 mg/kg Zoletil® (Virbac; 2.5 mg/kg tiletamine HCl and 2.5 mg/kg zolazepam HCl) and one drop of local anesthetic (Novesina®, Novartis) was administered to the eye. Anterior chamber paracentesis was performed with a 26 G needle attached to a tuberculin syringe; the needle was introduced into the anterior chamber through the cornea, taking care not to damage the tissues. Two hours after the first paracentesis, the animals were sacrificed with 0.4 ml Tanax® (Intervet International B.V.) and the second paracentesis was performed. About 100 μl of aqueous humor were removed at the second paracentesis. Aqueous humor was immediately split in four aliquots and stored at −80° C. until analysis. Then both eyes were enucleated and the iris-ciliary body was carefully excised, placed in polypropylene tubes, and stored at −80° C. until analysis.
# The pupillary diameter of both eyes was measured with a Castroviejo caliper 180 min and 5 min before the first paracentesis and 5 min before the second paracentesis.
# Myeloperoxidase (MPO) = Myeloperoxidase (MPO) activity in iris-ciliary body, rabbit paracentesis model; type: in vivo; settings: iris-ciliary body samples collected after the second paracentesis, raw data per eye (DX/SX)
# Protocol: 3.9 g of NaH2PO4 2H2O were dissolved in a volumetric flask to 500 ml with water. The pH was adjusted to pH=6 with 3N NaOH.
# 0.5 g of hexa-decyl-trimethyl-ammonium bromide was dissolved in 100 ml phosphate buffer.
# The solution was prepared freshly. Ten microliters of H2O2 (30 wt. %) were diluted to 1 ml with water (solution A). 7.5 mg o-dianisidine 2HCl were dissolved in 45 ml of phosphate buffer and 75 μl of solution A were added.
# (§2) Each rabbit was placed in a restraint device and tagged with the alphanumeric code. The formulations were instilled (50 μl) into the conjunctival sac of both eyes 180, 120, 90 and 30 min before the first paracentesis; then 15, 30, 90 min after the first paracentesis. […]
# The activity of MPO was measured as previously described by Williams et al. The iris-ciliary bodies were carefully dried, weighed and immersed in 1 ml of hexa-decyl-trimethyl-ammonium bromide solution. […] The change in absorbance at 460 nm was continuously monitored for 5 min by a spectrophotometer (UV/Vis Spectrometer Lambda EZ 201; Perkin Elmer). The slope of the line (Δ/min) was determined for each sample and used to calculate the number of units of MPO in the tissue as follows:
# Values were expressed as units of MPO/g of tissue.
# [4] = Clinical evaluation by slit lamp (clinical score), rabbit paracentesis model; type: in vivo
# Protocol: as §1
# The clinical evaluation of both eyes was performed by a slit lamp (4179-T; Sbisa, Italy) at 180 min and 5 min before the first paracentesis and 5 min before the second paracentesis. The clinical score was assigned according to the following scheme:
# 1=discrete dilatation of iris and conjunctival vessels
# 2=moderate dilatation of iris and conjunctival vessels
# 3=intense iridal hyperemia with flare in the anterior chamber
# 4=intense iridal hyperemia with flare in the anterior chamber and presence of fibrinous exudates.
# [5] = Rabbit paracentesis model of ocular inflammation, overall conclusions; type: in vivo; settings: 0.1%, 0.5% and 1% topical formulations; preliminary conclusions; listed as BOL-303242-X
# From the text: Inflammatory processes are multidimensional in origin, and are characterized by complex cellular and molecular events involving numerous components all of which have not been identified. Prostaglandins are among these mediators and play an important role in certain forms of ocular inflammation. Paracentesis of the anterior chamber in the rabbit eye induces inflammatory reaction due to the disruption of the blood-aqueous barrier (“BAB”), which is mediated, at least in part, by prostaglandin E2 [References 1-3 below]. Intraocular or topical administration of PGE2 disrupts the BAB. [Reference 4, below] The treatment schedule adopted in this study was similar to the clinical NSAIDs (Ocufen) treatment schedule used by surgeons for patients before cataract surgery.
# as §2
# Pupillary diameter, PGE2, protein, PMN, and MPO were expressed as mean ±SEM. […] Clinical score was expressed as % of eyes and the statistical analysis was performed using Kruskal-Wallis followed by a Dunn post hoc test. […]
Compound,Diameter (mm) T2: −5 min ([3]; 0.1% topical),Diameter (mm) T3: +115 min ([3]; 0.1% topical),Diameter (mm) T1: −180 min ([3]; 0.1% topical),Diameter (mm) T2: −5 min ([3]; 0.5% topical),Diameter (mm) T3: +115 min ([3]; 0.5% topical),Diameter (mm) T1: −180 min ([3]; 0.5% topical),"Clinical score expressed as percentage of eyes, Score (%) 3 ([4]; 0.1% topical, +115 min) [%]","Clinical score expressed as percentage of eyes, Score (%) 0 ([4]; 0.1% topical, −5 min) [%]","Clinical score expressed as percentage of eyes, Score (%) 0 ([4]; 0.1% topical, −180 min (basal)) [%]","Clinical score expressed as percentage of eyes, Score (%) 0 ([4]; 0.5% topical, −5 min) [%]","Clinical score expressed as percentage of eyes, Score (%) 0 ([4]; 0.5% topical, −180 min (basal)) [%]",other results
"CCCCCC=CC=C1C(=O)C=C[C@@H]1CC=CCCCC(=O)O [15-deoxy-Δ-12,14-prostaglandin J2]",,,,,,,,,,,,Neovascularization and angiogenesis in the rat cornea [1]: inhibit neovascularization and angiogenesis
Cc1ccc2c(NCC(O)(CC(C)(C)c3cc(F)cc4c3OCC4)C(F)(F)F)cccc2n1 (centres unmarked) [BOL],6.5 mm and 7.0 mm and 7.5 mm,5.0 mm and 6.0 mm and 6.5 mm and 5.5 mm,6.5 mm and 7.0 mm and 7.5 mm,8.0 mm and 7.0 mm and 7.5 mm,6.5 mm and 6.0 mm and 7.0 mm,8.0 mm and 7.0 mm and 7.5 mm,25,100,100,100,100,"Side effects of corticosteroids [2]: does not have some of the side effects of corticosteroids; Diameter (mm) T2: −5 min ([3]; 1% topical): 6.0 mm and 6.5 mm and 7.0 mm; Diameter (mm) T3: +115 min ([3]; 1% topical): 5.5 mm and 5.0 mm and 6.0 mm; Diameter (mm) T1: −180 min ([3]; 1% topical): 6.0 mm and 6.5 mm; MPO (Myeloperoxidase (MPO); 0.1% treatment): 1.00 Unit/g and 0.61 Unit/g and 0.65 Unit/g; MPO (Myeloperoxidase (MPO); 0.5% treatment): 0.85 Unit/g and 0.93 Unit/g and 0.79 Unit/g and 0.75 Unit/g and 0.74 Unit/g and 0.54 Unit/g and 0.58 Unit/g; Clinical score expressed as percentage of eyes, Score (%) 2 ([4]; 0.1% topical, +115 min): 75%; Clinical score expressed as percentage of eyes, Score (%) 2 ([4]; 1% topical, +115 min): 100%; Clinical score expressed as percentage of eyes, Score (%) 0 ([4]; 1% topical, −5 min): 100%; Clinical score expressed as percentage of eyes, Score (%) 0 ([4]; 1% topical, −180 min (basal)): 100%; Anti-inflammatory activity in the rabbit paracentesis model (conclusion) [5]: active in this model; also recorded: as effective an anti-inflammatory drug as some of the commonly accepted prior-art steroids or NSAID"
"C[C@@H]1C[C@H]2[C@@H]3CCC4=CC(=O)C=C[C@]4(C)[C@@]3(F)[C@@H](O)C[C@]2(C)[C@@]1(O)C(=O)CO [Dex, dexamethasone]",5.5 mm and 6.5 mm and 6.0 mm and 7.0 mm and 7.5 mm,5.5 mm and 6.0 mm and 4.5 mm and 5.0 mm and 6.5 mm,6.0 mm and 7.0 mm and 5.5 mm and 6.5 mm,,,,25,75,100,,,"Clinical score expressed as percentage of eyes, Score (%) 1 ([4]; 0.1% topical, +115 min): 75%; Clinical score expressed as percentage of eyes, Score (%) 1 ([4]; 0.1% topical, −5 min): 25%"
"CC(C(=O)O)c1ccc(-c2ccccc2)c(F)c1 (centres unmarked) [F, flurbiprofen]",,,,,,,,,,,,"Diameter (mm) T2: −5 min ([3]; 0.03% topical): 6.0 mm and 6.5 mm and 7.0 mm and 5.5 mm; Diameter (mm) T3: +115 min ([3]; 0.03% topical): 4.0 mm and 3.5 mm and 5.5 mm and 5.0 mm and 4.5 mm and 6.0 mm; Diameter (mm) T1: −180 min ([3]; 0.03% topical): 5.0 mm and 7.0 mm and 6.0 mm and 5.5 mm; Clinical score expressed as percentage of eyes, Score (%) 2 ([4]; 0.03% topical, +115 min): 100%; Clinical score expressed as percentage of eyes, Score (%) 0 ([4]; 0.03% topical, −5 min): 100%; Clinical score expressed as percentage of eyes, Score (%) 0 ([4]; 0.03% topical, −180 min (basal)): 100%"
"CCOC(=O)O[C@]1(C(=O)OCCl)CC[C@H]2[C@@H]3CCC4=CC(=O)C=C[C@]4(C)[C@H]3[C@@H](O)C[C@@]21C [LE, loteprednol etabonate]",,,,6.0 mm and 6.5 mm,4.5 mm and 5.0 mm and 5.5 mm and 6.0 mm,6.0 mm and 6.5 mm,,,,100,100,"Clinical score expressed as percentage of eyes, Score (%) 1 ([4]; 0.5% topical, +115 min): 75%; Clinical score expressed as percentage of eyes, Score (%) 2 ([4]; 0.5% topical, +115 min): 25%"
